# Laboratory results reported in patent publication US20240182415A1, “ACETAL, KETAL, AND […] OF PSILOCIN, PROCESSES FOR THE PREPARATION THEREOF, AND METHODS OF USE” (Invyxis, Inc., priority 2022, published 2024).
# Where two headings read alike, the source gives them in different places.
# Legend:
# [1] = Compound stability in fasted state simulated gastric fluid (FaSSGF); type: in vitro ADME; details: 37° C., 60 min vs T0
# Description: Fasted state simulated gastric fluid (FaSSGF). FaSSGF was prepared according to the manufacturer instructions (Biorelevant, UK). Test compounds (2 μL of 200 μM solution) were added to a 96-well plate containing 198 μL FaSSGF per well. The mixture was incubation in a thermomixer at 37° C. for 60 min. Sample aliquots were removed (40 μL, from T0 and 60 min.) and quenched with acetonitrile containing 0.5 μM glyburide (IS), and the supernatant collected by centrifugation (2500 rpm, 15 min.). LC-MS was performed using an Agilent MSD (electrospray in positive ionization) equipped with a Kinetic C18 reverse-column. The percent of test compound remaining was calculated using the ratio of the peak area of intact test compound at 60 min. over T0. The percent of psilocin release was calculated by comparing the peak area of psilocin at 60 min, (for test compound) vs. peak area at T0 (2 μM psilocin).
# [2] = Single-dose oral pharmacokinetics in mice (plasma and brain); type: in vivo, C57BL6 mice; details: PO 3.0 mg/kg
# Description: The single-dose pharmacokinetics of test compounds were analyzed relative to control (psilocin) in C57BL6 mice via oral (PO) administration. Test compound was dissolved in DMSO and transferred to a 15-mL tube, followed by addition of Tween-80, PEG-400, and water to final volume. The resulting formulation (0.3 mg/mL compound, in DMSO (1%), Tween-80 (5%), and PEG-400 (25%) in water (69%)) was vortexed for 2 min. and mixed by inversion.
# Male C57BL6 mice (3× per compound, (at a weight ˜20 g)) received a single dose (oral) of test compound at 3.0 mg/kg. Blood samples were collected pre-dose and at 0.083, 0.25, 0.5, 1, 2, 4, 8, 24-hour post-dose to yield approximately 20 μL of pooled plasma (3× mice) per time point. Brain tissues were collected at 2- and 8-hr post-dose. Brain was flushed with saline solution using a perfusion needle through the ascending aorta of the ventricle to remove any remaining blood prior to collection. Plasma and brain homogenate samples were stored at −80° C. prior to extraction for LC-MS/MS analysis.
# Samples were analyzed by LC-MS/MS to quantify the amounts of test compound and control (psilocin). The calculation of the pharmacokinetic (PK) parameters (AUCt, AUCinf, Cmax, Tmax, T1/2, and Kel) can be performed using a non-compartmental analysis (trapezoidal method).
# [3] = Compound stability, IP-One incubation; type: in vitro ADME; details: IP-One stimulation medium on CHO-K1 cells expressing 5-HT2A, 2 μM, 60 min vs T0, 37° C.
# Description: IP-One incubation. CHO-K1 cells expressing recombinant Serotonin receptor 5-HT2A (Perkin Elmer, Waltham, MA), were seeded in 96-well plates (˜80,000 cells/well) and treated with 28 μL (per well) of stimulation medium (IP-One HTRF® kit) containing test compounds (2 μM) for 1 hr in a CO2 incubator (5%) at 37° C. The cell-treated medium from 3 wells were pooled together to provide 40 μL for LC-MS analysis. Aliquots for each compound were collected at time zero (To, 100% intact test compound) and 60-min. The incubated medium (40 μL) was quenched with 120 μL of acetonitrile containing 0.5 μM glyburide (IS), and the supernatant was collected by centrifugation (2500 rpm, 15 min.). LC-MS was performed using an Agilent MSD (electrospray in positive ionization) equipped with a Kinetic C18 reverse-column. The percent of test compound remaining is calculated using the ratio of the peak areas of intact test compound at 60 min. over T0. The percent of psilocin release is calculated by comparing the peak area of psilocin at 60 min. (for test compound) vs. peak area at T0 (2 μM psilocin). Results are summarized in Table 1, (rel to % parent detected; and/or % psilocin detected).
# [4] = target: human serotonin 5HT2A receptor (Homo sapiens, UniProt P28223); assay: 5HT2A receptor radioligand displacement assay; details: displacement of [3H]-ketanserin or [3H]-LSD, 5HT2A membrane from HEK293
# Chain of human serotonin 5HT2A receptor (P28223 whole entry): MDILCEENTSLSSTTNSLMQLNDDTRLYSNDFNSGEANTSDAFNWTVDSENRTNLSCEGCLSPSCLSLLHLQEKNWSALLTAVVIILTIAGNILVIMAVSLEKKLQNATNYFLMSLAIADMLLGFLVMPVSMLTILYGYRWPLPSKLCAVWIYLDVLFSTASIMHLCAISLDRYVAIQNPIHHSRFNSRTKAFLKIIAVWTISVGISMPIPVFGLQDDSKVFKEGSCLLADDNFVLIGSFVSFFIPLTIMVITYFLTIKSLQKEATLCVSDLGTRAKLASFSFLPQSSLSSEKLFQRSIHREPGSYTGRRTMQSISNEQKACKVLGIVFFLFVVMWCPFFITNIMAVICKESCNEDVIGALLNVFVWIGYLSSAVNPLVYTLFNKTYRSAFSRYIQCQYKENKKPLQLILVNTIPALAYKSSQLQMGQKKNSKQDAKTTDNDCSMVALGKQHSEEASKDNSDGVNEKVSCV
Compound,% parent compound [3] [%],Displacement activity relative to psilocin [4],other results
"CN(C)CCc1c[nH]c2cccc(O)c12 [Psilocin, 4-hydroxy-N,N-dimethyltryptamine]",87.4,++,"% parent compound [1]: 72.2%; mean brain/plasma (B/P) ratio ([2]; 2-h post-dose, with estimated plasma concentration of 5 ng/mL): 11.2±4.3; psilocin in the brain at 8-h post-dose ([2]; 8-h post-dose): No psilocin in the brain was detected; Parent PK [brain] 2 h ([2]; brain, 2 h post-dose, parent compound): 54 ng/mL; Cmax ([2]; male, C57BL6, mouse, plasma, estimated, based on other pharmacokinetic data, read-out: Parent PK Cmax (estimated psilocin plasma concentration)): 5 ng/mL"
"COC(C)Oc1cccc2[nH]cc(CCN(C)C)c12 (centres unmarked) [Test compound A, 2-(4-(1-methoxyethoxy)-1H-indol-3-yl)-N,N-dimethylethan-1-amine]",–,–,"concentration at 2 h ([2]; male, C57BL6, mouse, brain, 2 h post-dose, parent compound, read-out: Parent PK [brain] 2 h): 0.6 ng/mL; AUC ([2]; male, C57BL6, mouse, plasma, parent compound, read-out: Parent PK AUC): 51.4 ng·h/mL; Cmax ([2]; male, C57BL6, mouse, plasma, parent compound, read-out: Parent PK Cmax): 21.6 ng/mL"
CCOCOc1cccc2[nH]cc(CCN(C)C)c12 [drawing 86],91.9,–,–
COC(C)Oc1cccc2[nH]cc(CCN(C)C)c12 (centres unmarked) [drawing 87],88.8,–,–
COC(C)n1cc(CCN(C)C)c2c(O)cccc21 (centres unmarked) [drawing 88],82.5,–,–
COCCOCn1cc(CCN(C)C)c2c(OCOC)cccc21 [drawing 89],94.7,–,–
CCOCOc1cccc2[nH]cc(CCN(C)C)c12 [drawing 91],–,–,% parent compound [1]: 97%
COCCOCn1cc(CCN(C)C)c2c(OCOC)cccc21 [drawing 94],–,–,% parent compound [1]: 20%
CCOCOc1cccc2[nH]cc(CCN(C)C)c12 [drawing 96],–,+++,–
COC(C)Oc1cccc2[nH]cc(CCN(C)C)c12 (centres unmarked) [drawing 97],–,++,–
COC(C)n1cc(CCN(C)C)c2c(O)cccc21 (centres unmarked) [drawing 98],–,+,–
COCCOCn1cc(CCN(C)C)c2c(OCOC)cccc21 [drawing 99],–,+,–
